Laboratory results from patent US12458021B2, “Microbiocidal derivatives” (SYNGENTA CROP PROTECTION AG, priority 2019, dated 2025).

Key:
[1] = system: Sclerotinia sclerotiorum; assay: Sclerotinia sclerotiorum / liquid culture (cottony rot); type: cell-based; details: PDB potato dextrose broth, mycelia fragments, 24° C., 3-4 days after application, read-out: control of Sclerotinia sclerotiorum (inhibition of growth, photometric)
Summary of the method: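 Mycelial fragments of a fresh liquid culture in potato dextrose broth were added to compound dispensed from DMSO solution. Plates were incubated at 24° C. Growth inhibition was measured photometrically 3–4 days after application.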

[2] = system: Mycosphaerella graminicola (Septoria tritici); assay: Mycosphaerella graminicola (Septoria tritici) / liquid culture (Septoria blotch); type: cell-based; details: Zymoseptoria tritici, PDB potato dextrose broth, 24° C., 4-5 days after application, read-out: control of Mycosphaerella graminicola (inhibition of growth, photometric)
Summary of the method: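 Fungal growth inhibition was read photometrically 4-5 days after application. Compound was dosed from a DMSO solution into liquid cultures of spores in potato dextrose broth, incubated at 24° C.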

[3] = system: Blumeria graminis f. sp. tritici (Erysiphe graminis f. sp. tritici); assay: Blumeria graminis f. sp. tritici / wheat / leaf disc preventative (powdery mildew on wheat); type: in vivo; details: foliar, wheat leaf segments cv. Kanzler, inoculated 1 day after application, assessed 6-8 days after application, read-out: control of Blumeria graminis f. sp. tritici (percent disease control compared to untreated)
Text: Example B4: Blumeria graminis f. sp. tritici (Erysiphe graminis f. sp. tritici)/Wheat/Leaf Disc Preventative (Powdery Mildew on Wheat) Wheat leaf segments cv. Kanzler are placed on agar in a multiwell plate (24-well format) and sprayed with the formulated test compound diluted in water. The leaf disks are inoculated by shaking powdery mildew infected plants above the test plates 1 day after application. […] […]-192.

[4] = system: Magnaporthe grisea (Pyricularia oryzae); assay: whole plant or invertebrate; type: in vivo; details: foliar, read-out: control of Magnaporthe grisea (percent disease control compared to untreated)
[5] = system: Pyrenophora teres; assay: Pyrenophora teres / barley / leaf disc preventative (net blotch); type: in vivo; details: foliar, barley leaf segments cv. Hasso, inoculated 2 days after application, assessed 5-7 days after application, read-out: control of Pyrenophora teres (disease control compared to untreated)
Summary of the method: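 Barley cv. Hasso leaf discs on agar were sprayed with diluted formulated compound, then inoculated with spore suspension 2 days later. Incubation at 20 °C, 65% rh, 12 h light/dark; disease control versus untreated assessed 5-7 days after application.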

[6] = system: Mycosphaerella arachidis (Cercospora arachidicola); assay: Mycosphaerella arachidis (Cercospora arachidicola) / liquid culture (early leaf spot); type: cell-based; details: PDB potato dextrose broth, 24° C., 4-5 days after application, read-out: control of Mycosphaerella arachidis (inhibition of growth, photometric)
Summary of the method: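 Conidia from cryogenic storage suspended in potato dextrose broth and added to compound in DMSO. Incubation at 24° C; growth inhibition read photometrically 4-5 days after application.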

[7] = system: Puccinia recondita f. sp. tritici; assay: Puccinia recondita f. sp. tritici / wheat / leaf disc preventative (brown rust); type: in vivo; details: foliar, wheat leaf segments cv. Kanzler, inoculated 1 day after application, assessed 7-9 days after application, read-out: control of Puccinia recondita f. sp. tritici, preventative (percent disease control compared to untreated)
Summary of the method: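 Wheat leaf segments (cv. Kanzler) on agar were sprayed with formulated compound, then inoculated with spores 1 day later. Segments were incubated at 19 °C, 75% rh with 12 h light/dark. Percent disease control versus untreated was scored 7–9 days after application.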

[8] = system: Monographella nivalis (Microdochium nivale); assay: Monographella nivalis (Microdochium nivale) / liquid culture (foot rot cereals); type: cell-based; details: PDB potato dextrose broth, 24° C., 4-5 days after application, read-out: control of Monographella nivalis (inhibition of growth, photometric)
Summary of the method: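 Growth inhibition measured by photometry 4-5 days post-application at 24° C. Compound was dispensed as DMSO solution, then PDB broth containing conidia from cryogenic storage was added.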

[9] = system: Fusarium culmorum; assay: microbe, parasite or virus in culture; type: cell-based; details: read-out: control of Fusarium culmorum (inhibition of growth, photometric)
[10] = system: Glomerella lagenarium (Colletotrichum lagenarium); assay: Glomerella lagenarium (Colletotrichum lagenarium) / liquid culture (anthracnose); type: cell-based; details: Colletotrichum orbiculare, PDB potato dextrose broth, 24° C., 3-4 days after application, read-out: control of Glomerella lagenarium (inhibition of growth, photometric)
Summary of the method: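 Fungal growth inhibition measured photometrically 3-4 days post-application at 24° C. Spores were mixed directly into potato dextrose broth and dispensed onto test compound supplied in DMSO.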

[11] = system: Botryotinia fuckeliana (Botrytis cinerea); assay: Botryotinia fuckeliana (Botrytis cinerea) / liquid culture (gray mould); type: cell-based; details: Vogels broth, 24° C., 3-4 days after application, read-out: control of Botryotinia fuckeliana (inhibition of growth, photometric)
Summary of the method: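 Botrytis cinerea conidia in Vogels broth were added to compound supplied as DMSO solution. Plates were incubated at 24 °C, and growth inhibition was read photometrically 3-4 days after application.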

[12] = system: Phaeosphaeria nodorum (Septoria nodorum); assay: Phaeosphaeria nodorum (Septoria nodorum) / wheat / leaf disc preventative (glume blotch); type: in vivo; details: Parastagonospora nodorum, foliar, wheat leaf segments cv. Kanzler, inoculated 2 days after application, assessed 5-7 days after application, read-out: control of Phaeosphaeria nodorum (percent disease control compared to untreated)
Summary of the method: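 Wheat cv. Kanzler leaf discs on agar were sprayed with formulated compound diluted in water and inoculated with spores 2 days later. Discs were kept at 20° C, 75% rh, 12 h light/dark; percent disease control versus untreated was scored 5-7 days after application.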

[13] = system: Alternaria solani; assay: Alternaria solani / tomato / leaf disc (early blight); type: in vivo; details: foliar, tomato leaf disks cv. Baby, inoculated 2 days after application, assessed 5-7 days after application, read-out: control of Alternaria solani (percent disease control compared to untreated)
Description: Example B1: Alternaria solani/Tomato/Leaf Disc (Early Blight) Tomato leaf disks cv. Baby are placed on agar in multiwell plates (24-well format) and sprayed with the formulated test compound diluted in water. The leaf disks are inoculated with a spore suspension of the fungus 2 days after application. The inoculated leaf disks are incubated at 23° C./21° C. […] […]-185.

[14] = system: Puccinia recondita f. sp. tritici; assay: Puccinia recondita f. sp. tritici / wheat / leaf disc curative (brown rust); type: in vivo; details: foliar, wheat leaf segments cv. Kanzler, compound applied 1 day after inoculation, assessed 6-8 days after application, read-out: control of Puccinia recondita f. sp. tritici, curative (percent disease control compared to untreated)
Description: Example B10: Puccinia recondita f. sp. tritici/Wheat/Leaf Disc Curative (Brown Rust) Wheat leaf segments cv. Kanzler are placed on agar in multiwell plates (24-well format). The leaf segments are inoculated with a spore suspension of the fungus. Plates are stored in darkness at 19° C. and 75% rh. The formulated test compound diluted in water is applied 1 day after inoculation. […] […]-185.

COc1ccc(Nc2cc(F)cc(F)c2)nc1C(=O)NC1(C)CCCCC1 [Compound P-108, 6-(3,5-difluoroanilino)-3-methoxy-N-(1-methylcyclohexyl)pyridine-2-carboxamide]
≥ 80%: inhibition at 20 ppm [1] | inhibition at 20 ppm [2] | pest or weed control at 200 ppm [3] | pest or weed control at 200 ppm [4] | pest or weed control at 200 ppm [5] | inhibition at 20 ppm [6] | pest or weed control at 200 ppm [7] | inhibition at 20 ppm [8] | inhibition at 20 ppm [9] | inhibition at 20 ppm [10]

COc1ccc(Nc2cc(F)cc(F)c2)nc1C(=O)NC(C)C(C)C (stereo not drawn) [Compound P-168, 6-(3,5-difluoroanilino)-N-(1,2-dimethylpropyl)-3-methoxy-pyridine-2-carboxamide]
≥ 80%: inhibition at 20 ppm [2] | inhibition at 20 ppm [11] | pest or weed control at 200 ppm [3] | pest or weed control at 200 ppm [5] | inhibition at 20 ppm [6] | pest or weed control at 200 ppm [7] | inhibition at 20 ppm [8] | inhibition at 20 ppm [9] | inhibition at 20 ppm [10]

COc1ccc(Nc2cc(F)cc(F)c2)nc1C(=O)NC1CCC1(C)C (stereo not drawn) [Compound P-7, 6-(3,5-difluoroanilino)-N-(2,2-dimethylcyclobutyl)-3-methoxy-pyridine-2-carboxamide]
≥ 80%: inhibition at 20 ppm [2] | inhibition at 20 ppm [11] | pest or weed control at 200 ppm [3] | pest or weed control at 200 ppm [4] | pest or weed control at 200 ppm [5] | inhibition at 20 ppm [6] | pest or weed control at 200 ppm [7] | inhibition at 20 ppm [8] | inhibition at 20 ppm [9] | pest or weed control at 200 ppm [12] | inhibition at 20 ppm [10] | pest or weed control at 200 ppm [13]

COc1ccc(Nc2cc(F)cc(F)c2)nc1C(=O)NC1(C2CCC2)CCC1 [Compound P-176, N-(1-cyclobutylcyclobutyl)-6-(3,5-difluoroanilino)-3-methoxy-pyridine-2-carboxamide]
≥ 80%: inhibition at 20 ppm [2] | inhibition at 20 ppm [11] | pest or weed control at 200 ppm [3] | pest or weed control at 200 ppm [5] | inhibition at 20 ppm [6] | pest or weed control at 200 ppm [7] | inhibition at 20 ppm [8] | inhibition at 20 ppm [9] | pest or weed control at 200 ppm [12] | inhibition at 20 ppm [10] | pest or weed control at 200 ppm [13]

CCC1(NC(=O)c2nc(Nc3cc(F)cc(F)c3)ccc2OC)CCC1 [Compound P-178, 6-(3,5-difluoroanilino)-N-(1-ethylcyclobutyl)-3-methoxy-pyridine-2-carboxamide]
≥ 80%: inhibition at 20 ppm [2] | inhibition at 20 ppm [11] | pest or weed control at 200 ppm [3] | pest or weed control at 200 ppm [5] | inhibition at 20 ppm [6] | pest or weed control at 200 ppm [7] | inhibition at 20 ppm [8] | inhibition at 20 ppm [9] | pest or weed control at 200 ppm [14] | pest or weed control at 200 ppm [12] | inhibition at 20 ppm [10] | pest or weed control at 200 ppm [13]

COc1ccc(Nc2cc(F)cc(F)c2)nc1C(=O)NC1(C)CCCC1 [Compound P-107, 6-(3,5-difluoroanilino)-3-methoxy-N-(1-methylcyclopentyl)pyridine-2-carboxamide]
≥ 80%: inhibition at 20 ppm [1] | inhibition at 20 ppm [2] | pest or weed control at 200 ppm [3] | pest or weed control at 200 ppm [4] | pest or weed control at 200 ppm [5] | inhibition at 20 ppm [6] | pest or weed control at 200 ppm [7] | inhibition at 20 ppm [8] | inhibition at 20 ppm [9] | pest or weed control at 200 ppm [14] | pest or weed control at 200 ppm [12] | inhibition at 20 ppm [10] | pest or weed control at 200 ppm [13]

COc1ccc(Nc2cc(F)cc(F)c2)nc1C(=O)NC1(C(C)C)CCC1 [Compound P-179, 6-(3,5-difluoroanilino)-N-(1-isopropylcyclobutyl)-3-methoxy-pyridine-2-carboxamide]
≥ 80%: inhibition at 20 ppm [2] | inhibition at 20 ppm [11] | pest or weed control at 200 ppm [3] | pest or weed control at 200 ppm [5] | inhibition at 20 ppm [6] | pest or weed control at 200 ppm [7] | inhibition at 20 ppm [8] | inhibition at 20 ppm [9] | pest or weed control at 200 ppm [12] | inhibition at 20 ppm [10] | pest or weed control at 200 ppm [13]
